Measured values published in EP0207913A1, “Catechol carboxamides, process for their preparation, intermediates and a pharmaceutical preparation” (priority 1985, dated 1987).
Read-outs that look alike come from different tables or passages of the source.

Tested on: apomorphine syndrome
Assay: In vivo test: apomorphine syndrome inhibition
Design: species or system Male Sprague-Dawley rats
Conditions: ip, rat, compound injected 60 min prior to apomorphine hydrochloride 1 mg/kg s.c.
Procedure: Male Sprague-Dawley rats (weighing 225-275 g) were used. […] The compounds were injected 60 min. prior to apomorphine hydrochloride (1 mg/kg) which was injected subcutaneously (s.c.) into the neck.
Directly after injection, the animals were placed in the cages, one in each cage. Scoring of the stereotypies were performed by two separate methods. The first scoring system was a modified version of the system introduced by Costall and Naylor (1973). The strength of the stereotype was scored on a 0-3 scale as follows:
In the second system the number of animals displaying hyperactivity caused by apomorphine were scored. Each group consisted of 6-8 animals. Saline controls were always run simultaneously. […] ED50's of the second scoring system are the doses which reduce the number of animals showing hyperactivity by 50 % over the observation period of ? min. The ED50 were calculated from log dose-response curves by the method of least squares from 4-6 dose levels with 6-8 animals per dose level.

[1] = dose reducing number of animals showing hyperactivity by 50 %, read-out: Reduction of hyperactivity ED50
[2] = dose reducing strength of stereotypies (0-3 scale) by 50 % over 60 min, read-out: Reduction of stereotypies ED50

SMILES	ED50 [1] [µmol/kg]	ED50 [2] [µmol/kg]
CCN1CCCC1CNC(=O)c1cc(Br)cc(OC)c1OC (centres unmarked)	0.0032	0.13
CCN1CCCC1CNC(=O)c1cc(Br)ccc1OC (centres unmarked) [ex 5 of US 3 342 (26)]	2.5	6.5
CCN1CCCC1CNC(=O)c1c(O)c(Cl)cc(Cl)c1OC (centres unmarked) [a compound of EP 60235]	0.11	2.4
C=CCN1CCCC1CNC(=O)c1cc(Br)cc(OC)c1OC (centres unmarked)	0.02	0.12
